Assay results from US10913727B2, “Modulators of the integrated stress pathway” (Calico Life Sciences LLC, priority 2016, dated 2021).

tested on: HEK293T cells carrying the ATF4 luciferase reporter; test: ATF4-Luc assay, in vitro model of Vanishing Cell White Matter Disease (VWMD); assay type: cell-based; conditions: Homo sapiens, HEK-293T, 1 μg/mL tunicamycin, 7 hours, One Glo luminescence
Method in brief: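 Compound at 200 nM and tunicamycin at 1 μg/mL were given together for 7 h to HEK293T cells stably transduced with an ATF4 5′-UTR-driven firefly luciferase reporter. Read-out by luminescence, reported as EC50.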

`CCc1nc(C(=O)NC23CC(NC(=O)COc4ccc5c(c4)OC(F)(F)O5)(C2)C3)cs1` [Compound 699, N-(3-{2-[(2,2-difluoro-2H-1,3-benzodioxol-5-yl)oxy]acetamido}bicyclo[1.1.1]pentan-1-yl)-2-ethyl-1,3-thiazole-4-carboxamide] and `O=C(COc1ccc2c(c1)OC(F)(F)O2)NC12CC(NC(=O)c3cccnc3)(C1)C2` [Compound 457, N-(3-{2-[(2,2-difluoro-2H-1,3-benzodioxol-5-yl)oxy]acetamido}bicyclo[1.1.1]pentan-1-yl)pyridine-3-carboxamide] fall in the same range of EC50: 250 to 1000 nM for the first, 250 to 1000 nM for the second.

First: O=C(COc1ccc(Cl)c(F)c1)NC12CC(NC(=O)c3ncc(C(F)F)s3)(C1)C2 [Compound 425, N-{3-[2-(4-chloro-3-fluorophenoxy)acetamido]bicyclo[1.1.1]pentan-1-yl}-5-(difluoromethyl)-1,3-thiazole-2-carboxamide]
Second: O=C(COc1ccc(Cl)c(F)c1)NC12CC(NC(=O)c3ccc(C(F)F)nc3)(C1)C2 [Compound 207, N-{3-[2-(4-chloro-3-fluorophenoxy)acetamido]bicyclo[1.1.1]pentan-1-yl}-6-(difluoromethyl)pyridine-3-carboxamide]
The EC50 of the first is higher: 250 to 1000 nM for the first, 50 to 250 nM for the second.

First: Cc1cnoc1C(=O)NC12CC(NC(=O)COc3ccc(Cl)c(F)c3)(C1)C2 [Compound 367, N-{3-[2-(4-chloro-3-fluorophenoxy)acetamido]bicyclo[1.1.1]pentan-1-yl}-4-methyl-1,2-oxazole-5-carboxamide]
Second: Cc1ncc(C(=O)NC23CC(NC(=O)COc4ccc(Cl)c(F)c4)(C2)C3)o1 [Compound 257, N-{3-[2-(4-chloro-3-fluorophenoxy)acetamido]bicyclo[1.1.1]pentan-1-yl}-2-methyl-1,3-oxazole-5-carboxamide]
The EC50 of the first is higher: > 2000 nM for the first, 50 to 250 nM for the second. The second is the more potent here.

First: Cc1cc(C(=O)NC23CC(NC(=O)COc4ccc(Cl)c(F)c4)(C2)C3)n(CC(C)(C)O)n1 [Compound 459, N-{3-[2-(4-chloro-3-fluorophenoxy)acetamido]bicyclo[1.1.1]pentan-1-yl}-1-(2-hydroxy-2-methylpropyl)-3-methyl-1H-pyrazole-5-carboxamide]
Second: Cc1cc(C(=O)NC23CC(NC(=O)COc4ccc(Cl)c(F)c4)(C2)C3)cnc1C [Compound 856, N-{3-[2-(4-chloro-3-fluorophenoxy)acetamido]bicyclo[1.1.1]pentan-1-yl}-5,6-dimethylpyridine-3-carboxamide]
The EC50 of the first is higher: > 2000 nM for the first, 250 to 1000 nM for the second.

First: O=C(COc1ccc(F)c(F)c1)NC12CC(NC(=O)c3cnc(C(F)F)cn3)(C1)C2 [Compound 278, 5-(difluoromethyl)-N-{3-[2-(3,4-difluorophenoxy)acetamido]bicyclo[1.1.1]pentan-1-yl}pyrazine-2-carboxamide]
Second: O=C(COc1ccc(Cl)c(F)c1)NC12CCC(NC(=O)c3cnc(C(F)F)cn3)(C1)C2 [Compound 296, N-{4-[2-(4-chloro-3-fluorophenoxy)acetamido]bicyclo[2.1.1]hexan-1-yl}-5-(difluoromethyl)pyrazine-2-carboxamide]
The EC50 of the first is higher: 250 to 1000 nM for the first, 50 to 250 nM for the second.

First: O=C(COc1ccc(Cl)c(F)c1)NC12CC(Nc3c(Cl)cnn(CC(F)(F)F)c3=O)(C1)C2 [Compound 417, 2-(4-chloro-3-fluorophenoxy)-N-(3-{[5-chloro-3-oxo-2-(2,2,2-trifluoroethyl)-2,3-dihydropyridazin-4-yl]amino}bicyclo[1.1.1]pentan-1-yl)acetamide]
Second: O=C(COc1ccc(Cl)c(F)c1)NC12CC(NC(=O)c3cnc(C(F)(F)F)s3)(C1)C2 [Compound 563, N-{3-[2-(4-chloro-3-fluorophenoxy)acetamido]bicyclo[1.1.1]pentan-1-yl}-2-(trifluoromethyl)-1,3-thiazole-5-carboxamide]
The EC50 of the first is higher: 250 to 1000 nM for the first, < 50 nM for the second.

`Cc1cc(C(=O)NC23CCC(NC(=O)COc4ccc(Cl)c(F)c4)(C2)C3)sn1` [Compound 710, N-{4-[2-(4-chloro-3-fluorophenoxy)acetamido]bicyclo[2.1.1]hexan-1-yl}-3-methyl-1,2-thiazole-5-carboxamide] and `O=C(COc1ccc(Cl)c(F)c1)NC12CCC(NC(=O)c3cnc(C(F)(F)F)s3)(C1)C2` [Compound 647, N-{4-[2-(4-chloro-3-fluorophenoxy)acetamido]bicyclo[2.1.1]hexan-1-yl}-2-(trifluoromethyl)-1,3-thiazole-5-carboxamide] fall in the same range of EC50: 250 to 1000 nM for the first, 250 to 1000 nM for the second.

Compared with `Cc1cn2ccnc(NC34CC(NC(=O)COc5ccc(Cl)c(F)c5)(C3)C4)c2n1` [Compound 463, 2-(4-chloro-3-fluorophenoxy)-N-{3-[(2-methylimidazo[1,2-a]pyrazin-8-yl)amino]bicyclo[1.1.1]pentan-1-yl}acetamide], `O=C(COc1ccc(Cl)c(F)c1)NC12CC(Nc3nc(Cl)cc4nccn34)(C1)C2` [Compound 428, 2-(4-chloro-3-fluorophenoxy)-N-{3-[(7-chloroimidazo[1,2-c]pyrimidin-5-yl)amino]bicyclo[1.1.1]pentan-1-yl}acetamide] is higher in EC50: 50 to 250 nM for the first, 250 to 1000 nM for the second.

`O=C(COc1ccc(Cl)c(F)c1)NC12CC(NC(=O)c3cc(CCO)ccn3)(C1)C2` [Compound 282, N-{3-[2-(4-chloro-3-fluorophenoxy)acetamido]bicyclo[1.1.1]pentan-1-yl}-4-(2-hydroxyethyl)pyridine-2-carboxamide] and `Cc1cccnc1C(=O)NC12CC(NC(=O)COc3ccc(Cl)c(F)c3)(C1)C2` [Compound 368, N-{3-[2-(4-chloro-3-fluorophenoxy)acetamido]bicyclo[1.1.1]pentan-1-yl}-3-methylpyridine-2-carboxamide] fall in the same range of EC50: 250 to 1000 nM for the first, 250 to 1000 nM for the second.

First: CCCn1ccc(C(=O)NC23CC(NC(=O)COc4ccc(Cl)c(F)c4)(C2)C3)n1 [Compound 343, N-{3-[2-(4-chloro-3-fluorophenoxy)acetamido]bicyclo[1.1.1]pentan-1-yl}-1-propyl-1H-pyrazole-3-carboxamide]
Second: COCCOc1ccc(C(=O)NC23CC(NC(=O)COc4ccc(Cl)c(F)c4)(C2)C3)nc1 [Compound 299, N-{3-[2-(4-chloro-3-fluorophenoxy)acetamido]bicyclo[1.1.1]pentan-1-yl}-5-(2-methoxyethoxy)pyridine-2-carboxamide]
The EC50 of the first is lower: 50 to 250 nM for the first, 250 to 1000 nM for the second.

`Cc1ocnc1C(=O)NC12CC(NC(=O)COc3ccc(Cl)c(F)c3)(C1)C2` [Compound 909, N-{3-[2-(4-chloro-3-fluorophenoxy)acetamido]bicyclo[1.1.1]pentan-1-yl}-5-methyl-1,3-oxazole-4-carboxamide] and `Cc1noc(C)c1C(=O)NC12CC(NC(=O)COc3ccc(Cl)c(F)c3)(C1)C2` [Compound 312, N-{3-[2-(4-chloro-3-fluorophenoxy)acetamido]bicyclo[1.1.1]pentan-1-yl}-3,5-dimethyl-1,2-oxazole-4-carboxamide] cannot be ordered by EC50: > 2000 nM for the first, > 2000 nM for the second.

Compared with `Cc1cnc(C(=O)NC23CCC(NC(=O)COc4ccc5c(c4)OC(F)(F)O5)(CC2)[C@@H](O)C3)cn1` [Compound 638, N-[(3S)-4-{2-[(2,2-difluoro-2H-1,3-benzodioxol-5-yl)oxy]acetamido}-3-hydroxybicyclo[2.2.2]octan-1-yl]-5-methylpyrazine-2-carboxamide], `Cc1cnc(C(=O)NC23CCC(NC(=O)COc4ccc(Cl)c(F)c4)(CC2)[C@@H](O)C3)cn1` [Compound 666, N-{(3S)-4-[2-(4-chloro-3-fluorophenoxy)acetamido]-3-hydroxybicyclo[2.2.2]octan-1-yl}-5-methylpyrazine-2-carboxamide] is lower in EC50: 250 to 1000 nM for the first, < 50 nM for the second.

Going from `O=C(COc1ccc(Cl)c(F)c1)NC12CCC(NC(=O)c3cc(C4CCCCC4)no3)(CC1)CC2O` (stereo not drawn) [Compound 408, N-{4-[2-(4-chloro-3-fluorophenoxy)acetamido]-3-hydroxybicyclo[2.2.2]octan-1-yl}-3-cyclohexyl-1,2-oxazole-5-carboxamide] to `O=C(COc1ccc(Cl)c(F)c1)NC12CCC(NC(=O)c3ccsn3)(CC1)C[C@@H]2O` [Compound 695, N-{(3S)-4-[2-(4-chloro-3-fluorophenoxy)acetamido]-3-hydroxybicyclo[2.2.2]octan-1-yl}-1,2-thiazole-3-carboxamide], the EC50 falls from > 2000 nM to < 50 nM.

First: Cc1cnc(C(=O)NC23CCC(NC(=O)COc4ccc(Cl)c(F)c4)(CC2)CC3O)cn1 (stereo not drawn) [Compound 220, N-{4-[2-(4-chloro-3-fluorophenoxy)acetamido]-2-hydroxybicyclo[2.2.2]octan-1-yl}-5-methylpyrazine-2-carboxamide]
Second: CCNC(=O)c1ccc(C(=O)NC23CC(NC(=O)COc4ccc(Cl)c(F)c4)(C2)C3)nc1 [Compound 270, N^2-{3-[2-(4-chloro-3-fluorophenoxy)acetamido]bicyclo[1.1.1]pentan-1-yl}-N^5-ethylpyridine-2,5-dicarboxamide]
The EC50 of the first is lower: 50 to 250 nM for the first, > 2000 nM for the second.

Compared with `O=C(COc1ccc(Cl)c(F)c1)NC12CC(NC(=O)c3ccc4cc(F)ccc4n3)(C1)C2` [Compound 929, N-{3-[2-(4-chloro-3-fluorophenoxy)acetamido]bicyclo[1.1.1]pentan-1-yl}-6-fluoroquinoline-2-carboxamide], `O=C(COc1ccc(Cl)c(F)c1)NC12CC(NC(=O)c3cccnc3)(C1)C2` [Compound 130, N-{3-[2-(4-chloro-3-fluorophenoxy)acetamido]bicyclo[1.1.1]pentan-1-yl}pyridine-3-carboxamide] is higher in EC50: < 50 nM for the first, 50 to 250 nM for the second. The first is the more potent here.

Compared with `Cn1nc(C(=O)NC23CC(NC(=O)COc4ccc(Cl)c(F)c4)(C2)C3)c2c1CCC2` [Compound 877, N-{3-[2-(4-chloro-3-fluorophenoxy)acetamido]bicyclo[1.1.1]pentan-1-yl}-1-methyl-1,4,5,6-tetrahydrocyclopenta[c]pyrazole-3-carboxamide], `Cn1c(C(=O)NC23CC(NC(=O)COc4ccc(Cl)c(F)c4)(C2)C3)cc2sccc21` [Compound 841, N-{3-[2-(4-chloro-3-fluorophenoxy)acetamido]bicyclo[1.1.1]pentan-1-yl}-4-methyl-4H-thieno[3,2-b]pyrrole-5-carboxamide] is lower in EC50: > 2000 nM for the first, 250 to 1000 nM for the second. The second is the more potent here.

With `CC(C)(C)[Si](C)(C)OCCOc1ccc(C(=O)NC23CC(NC(=O)COc4ccc(Cl)c(F)c4)(C2)C3)cn1` [Compound 157, 6-(2-{[tert-butyl(dimethyl)silyl]oxy}ethoxy)-N-{3-[2-(4-chloro-3-fluorophenoxy)acetamido]bicyclo[1.1.1]pentan-1-yl}pyridine-3-carboxamide] the EC50 was > 2000 nM.
